Assay results as given in ChEMBL document CHEMBL1124634, “Synthesis and antirhinovirus activity of 6-(dimethylamino)-2-(trifluoromethyl)-9-(substituted benzyl)-9H-purines” (J Med Chem, 1989).

How the values were obtained:
Human rhinovirus sp. [1] = experiment: Antiviral activity against rhinoviral 29 serotype in a plaque inhibition assay using monolayers of M-HeLa cells; type: functional, organism-based
Human rhinovirus sp. [2] = experiment: Antiviral activity against rhinoviral 2 serotype in a plaque inhibition assay using monolayers of M-HeLa cells; type: functional, organism-based
Human rhinovirus sp. [3] = experiment: Antiviral activity against rhinoviral 14 serotype in a plaque inhibition assay using monolayers of M-HeLa cells; type: functional, organism-based
Human rhinovirus sp. [4] = experiment: Antiviral activity against rhinoviral 15 serotype in a plaque inhibition assay using monolayers of M-HeLa cells; type: functional, organism-based
Human rhinovirus sp. [5] = experiment: Antiviral activity against rhinoviral 16 serotype in a plaque inhibition assay using monolayers of M-HeLa cells; type: functional, organism-based
Human rhinovirus sp. [6] = experiment: Antiviral activity against rhinoviral 12 serotype in a plaque inhibition assay using monolayers of M-HeLa cells; type: functional, organism-based
Human rhinovirus sp. [7] = experiment: Antiviral activity against rhinoviral-18 serotype in a plaque inhibition assay using monolayers of M-HeLa cells; type: functional, organism-based
Human rhinovirus sp. [8] = experiment: Antiviral activity against rhinoviral-1A serotype in a plaque inhibition assay using monolayers of M-HeLa cells; type: functional, organism-based
Human rhinovirus sp. [9] = experiment: Antiviral activity against rhinoviral-1B serotype in a plaque inhibition assay using monolayers of M-HeLa cells; type: functional, organism-based
Human rhinovirus sp. [10] = experiment: Percent inhibitory activity at 8 uM against rhinoviral 13 serotype in a plaque inhibition assay using monolayers of M-HeLa cells; type: functional
Human rhinovirus sp. [11] = experiment: Percent inhibitory activity at 8 uM against rhinoviral 19s erotype in a plaque inhibition assay using monolayers of M-HeLa cells; type: functional
Human rhinovirus sp. [12] = experiment: Percent inhibitory activity at 8 uM against rhinoviral 31 serotype in a plaque inhibition assay using monolayers of M-HeLa cells; type: functional
Human rhinovirus sp. [13] = experiment: Percent inhibitory activity at 8 uM against rhinoviral 3 serotype in a plaque inhibition assay using monolayers of M-HeLa cells; type: functional
Human rhinovirus sp. [14] = experiment: Percent inhibitory activity at 8 uM against rhinoviral 4 serotype in a plaque inhibition assay using monolayers of M-HeLa cells; type: functional
Human rhinovirus sp. [15] = experiment: Percent inhibitory activity at 8 uM against rhinoviral 5 serotype in a plaque inhibition assay using monolayers of M-HeLa cells; type: functional
[16] = Percent inhibitory activity at 8 uM against rhinoviral 8 serotype in a plaque inhibition assay using monolayers of M-HeLa cells; type: functional, Homo sapiens
Human rhinovirus sp. [17] = experiment: Antiviral activity against rhinoviral 21 serotype in a plaque inhibition assay using monolayers of M-HeLa cells; type: functional, organism-based
Human rhinovirus sp. [18] = experiment: Antiviral activity against rhinoviral 9 serotype in a plaque inhibition assay using monolayers of M-HeLa cells; type: functional, organism-based
Human rhinovirus sp. [19] = experiment: Percent inhibitory activity at 8 uM against rhinoviral 30 serotype in a plaque inhibition assay using monolayers of M-HeLa cells; type: functional
Human rhinovirus sp. [20] = experiment: Antiviral activity against rhinoviral 4 serotype in a plaque inhibition assay using monolayers of M-HeLa cells; type: functional, organism-based
Human rhinovirus sp. [21] = experiment: Antiviral activity against rhinoviral 8 serotype in a plaque inhibition assay using monolayers of M-HeLa cells; type: functional, organism-based
Human rhinovirus sp. [22] = experiment: Percent inhibitory activity at 8 uM against rhinoviral 15 serotype in a plaque inhibition assay using monolayers of M-HeLa cells; type: functional
Human rhinovirus sp. [23] = experiment: Percent inhibitory activity at 8 uM against rhinoviral 21 serotype in a plaque inhibition assay using monolayers of M-HeLa cells; type: functional
Human rhinovirus sp. [24] = experiment: Percent inhibitory activity at 8 uM against rhinoviral 29 serotype in a plaque inhibition assay using monolayers of M-HeLa cells; type: functional
Human rhinovirus sp. [25] = experiment: Antiviral activity against rhinoviral 5 serotype in a plaque inhibition assay using monolayers of M-HeLa cells; type: functional, organism-based
Human rhinovirus sp. [26] = experiment: Antiviral activity against rhinoviral 31 serotype in a plaque inhibition assay using monolayers of M-HeLa cells; type: functional, organism-based
Human rhinovirus sp. [27] = experiment: Antiviral activity against rhinoviral 18 serotype in a plaque inhibition assay using monolayers of M-HeLa cells; type: functional, organism-based
Human rhinovirus sp. [28] = experiment: Antiviral activity against rhinoviral 19 serotype in a plaque inhibition assay using monolayers of M-HeLa cells; type: functional, organism-based
Human rhinovirus sp. [29] = experiment: Antiviral activity against rhinoviral 30 serotype in a plaque inhibition assay using monolayers of M-HeLa cells; type: functional, organism-based
[30] = Antiviral activity against rhinoviral 13 serotype in a plaque inhibition assay using monolayers of M-HeLa cells; type: functional, cell-based; conditions: Homo sapiens
[31] = Percent inhibitory activity at 8 uM against rhinoviral 2 serotype in a plaque inhibition assay using monolayers of M-HeLa cells; type: functional, Homo sapiens
Human rhinovirus sp. [32] = experiment: Antiviral activity against rhinoviral 3 serotype in a plaque inhibition assay using monolayers of M-HeLa cells; type: functional, organism-based
Human rhinovirus sp. [33] = experiment: Percent inhibitory activity at 8 uM against rhinoviral 14 serotype in a plaque inhibition assay using monolayers of M-HeLa cells; type: functional
Human rhinovirus sp. [34] = experiment: Antiviral activity against rhinoviral-19 serotype in a plaque inhibition assay using monolayers of M-HeLa cells; type: functional, organism-based

Compound	IC50 (Human rhinovirus sp. [1]) [µM]	IC50 (Human rhinovirus sp. [2]) [µM]	IC50 (Human rhinovirus sp. [3]) [µM]	IC50 (Human rhinovirus sp. [4]) [µM]	IC50 (Human rhinovirus sp. [5]) [µM]	IC50 (Human rhinovirus sp. [6]) [µM]	IC50 (Human rhinovirus sp. [7]) [µM]	IC50 (Human rhinovirus sp. [8]) [µM]	IC50 (Human rhinovirus sp. [9]) [µM]	Inhibition (Human rhinovirus sp. [10]) [%]	Inhibition (Human rhinovirus sp. [11]) [%]	Inhibition (Human rhinovirus sp. [12]) [%]	Inhibition (Human rhinovirus sp. [13]) [%]	Inhibition (Human rhinovirus sp. [15]) [%]	IC50 (Human rhinovirus sp. [18]) [µM]	Inhibition (Human rhinovirus sp. [19]) [%]	IC50 (Human rhinovirus sp. [20]) [µM]	IC50 (Human rhinovirus sp. [21]) [µM]	Inhibition (Human rhinovirus sp. [23]) [%]	IC50 (Human rhinovirus sp. [25]) [µM]	other results
CN(C)c1nc(C(F)(F)F)nc2c1ncn2Cc1cccc(F)c1	2.7	15	7.1	3.2	0.8	2.3	8	0.57	0.03	30	28	43	35	34	0.3	28					Inhibition (Human rhinovirus sp. [14]): 34%; Inhibition [16]: 45%; IC50 (Human rhinovirus sp. [17]): 10 µM
Cc1ccc(Cn2cnc3c(N(C)C)nc(C(F)(F)F)nc32)c(C)c1		2.8	11		1.2	7.2	6.1	0.83	0.11	13	36		40		0.95	33	7.6	> 8	16	> 8	Inhibition (Human rhinovirus sp. [22]): 30%; Inhibition (Human rhinovirus sp. [24]): 20%; IC50 (Human rhinovirus sp. [26]): 13 µM
Cc1ccc(Cn2cnc3c(N(C)C)nc(C(F)(F)F)nc32)cc1C	5	5	6.6	2	0.78	4		1.7	0.17				39		0.65		6	5.1	16	> 8	IC50 (Human rhinovirus sp. [27]): 8.2 µM; IC50 (Human rhinovirus sp. [28]): 7.1 µM; IC50 (Human rhinovirus sp. [29]): 8.1 µM; IC50 [30]: > 8 µM; IC50 (Human rhinovirus sp. [26]): 13 µM
CN(C)c1nc(C(F)(F)F)nc2c1ncn2Cc1ccc(F)cc1	4		7.1	8.7	1.3	8		1.3	0.05	42	22	47	35	11	0.87		3.8	8	34		IC50 (Human rhinovirus sp. [27]): 8.9 µM; IC50 (Human rhinovirus sp. [29]): 9 µM; Inhibition [31]: 27%
Cc1ccccc1Cn1cnc2c(N(C)C)nc(C(F)(F)F)nc21	6.2				1.9	6.5	7.7	8	0.29	33	19	47		40	1.9				18		IC50 (Human rhinovirus sp. [29]): 9 µM; IC50 (Human rhinovirus sp. [32]): 7.5 µM; Inhibition (Human rhinovirus sp. [33]): 31%; Inhibition (Human rhinovirus sp. [22]): 14%; Inhibition (Human rhinovirus sp. [14]): 22%; Inhibition [16]: 44%
CN(C)c1ccc(Cn2cnc3c(N(C)C)nc(C(F)(F)F)nc32)cc1	4.7	11			1.9	4		1.2	0.29	45	23	41		39	4.6	35	6.1		27		IC50 (Human rhinovirus sp. [27]): 8.9 µM; Inhibition (Human rhinovirus sp. [33]): 46%; Inhibition (Human rhinovirus sp. [22]): 30%; Inhibition [16]: 37%
CSc1ccc(Cn2cnc3c(N(C)C)nc(C(F)(F)F)nc32)cc1	2.6	4.5	7.6	4.5	0.81	5.2		0.57	0.07	35			39		1		3.8	7.2	35	> 8	IC50 (Human rhinovirus sp. [27]): 10 µM; IC50 (Human rhinovirus sp. [28]): 2.5 µM; IC50 (Human rhinovirus sp. [29]): 7.9 µM; IC50 (Human rhinovirus sp. [26]): 8.6 µM
CN(C)c1nc(C(F)(F)F)nc2c1ncn2Cc1ccc(Cl)c(N)c1		6.5	7.1	5.8	1.6	5.2	14	2.4	0.17	18	40	29			1.5	34	7.2	6.2	10	> 8	IC50 (Human rhinovirus sp. [32]): 14 µM; Inhibition (Human rhinovirus sp. [24]): 26%
Cc1cc(Cl)ccc1Cn1cnc2c(N(C)C)nc(C(F)(F)F)nc21		9	9		1.9	7.8	10	0.82	0.12	23			29		2	28		9.5	22	> 8	IC50 (Human rhinovirus sp. [34]): 10 µM; Inhibition (Human rhinovirus sp. [22]): 11%; Inhibition (Human rhinovirus sp. [24]): 32%; Inhibition (Human rhinovirus sp. [14]): 25%; IC50 (Human rhinovirus sp. [26]): 12 µM
